Experimental data as given in the supplement of paper PMC10627819.

Experiments:
[1] = system: S. aureus Newman; experiment: Bliss interaction score (quartile over a dose matrix) (fitness difference); higher = more antagonism (negative = synergy)
How it was run: (§1)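 Each OD595 reading at entry into stationary phase was scaled to the robust mean of the untreated wells on its plate, with a ceiling of 1. These ratios define fitness, and single-drug fitness was inferred from combinations. The Bliss score compares observed fitness with the product-based expectation and is reported as quartiles across all replicate types, technical, biological and donor/recipient.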

[2] = system: S. aureus DSM 20231; experiment: as above
How it was run: as §1

[3] = system: S. pneumoniae D39V; experiment: as above
How it was run: as §1

[4] = system: B. subtilis 168; experiment: as above
How it was run: as §1

[5] = system: S. aureus Newman; experiment: fitness (endpoint OD595 vs no drug) (fraction); higher = more growth
How it was run: (§2)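 In 384-well plates at 37 °C, cultures began at OD595 0.01 in 30 µl, with 55 µl used for S. pneumoniae. OD595 readings every 30 min for 14 h were corrected by the first reading. Fitness divides the stationary-phase transition optical density by the robust mean of no-drug control wells. The result is capped at 1.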

[6] = system: S. aureus DSM 20231; experiment: as above
How it was run: as §2

[7] = system: S. pneumoniae D39V; experiment: as above
How it was run: as §2

[8] = system: B. subtilis 168; experiment: as above
How it was run: as §2
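Throughout, for Bliss interaction score (quartile over a dose matrix): first quartile when negative (synergy) and third quartile when positive (antagonism).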
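Throughout, for fitness (endpoint OD595 vs no drug): OD595 on entry to stationary phase over no-drug wells; at most 1.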

COc1c(N2C[C@@H]3CCCN[C@@H]3C2)c(F)cc2c(=O)c(C(=O)O)cn(C3CC3)c12 [Moxifloxacin] + Cc1onc(-c2ccccc2)c1C(=O)N[C@@H]1C(=O)N2[C@@H]1SC(C)(C)[C@@H]2C(=O)O [Oxacillin]
Details | Bliss interaction score
[1] | -0.0642
[2] | 0.0441
[3] | 0.0911
[4] | 0.0214

Details | fitness
[5], first compound 0.0075 µg/mL, partner 0.0156 µg/mL | 0.676
[5], first compound 0.0075 µg/mL, partner 0.0312 µg/mL | 0.633
[5], first compound 0.0075 µg/mL, partner 0.0625 µg/mL | 0.515
[5], first compound 0.015 µg/mL, partner 0.0156 µg/mL | 0.575
[5], first compound 0.015 µg/mL, partner 0.0312 µg/mL | 0.487
[5], first compound 0.015 µg/mL, partner 0.0625 µg/mL | 0.417
[5], first compound 0.03 µg/mL, partner 0.0156 µg/mL | 0.116
[5], first compound 0.03 µg/mL, partner 0.0312 µg/mL | 0.0437
[5], first compound 0.03 µg/mL, partner 0.0625 µg/mL | 0.0665
[6], first compound 0.0075 µg/mL, partner 0.0156 µg/mL | 0.665
[6], first compound 0.0075 µg/mL, partner 0.0312 µg/mL | 0.623
[6], first compound 0.0075 µg/mL, partner 0.0625 µg/mL | 0.483
[6], first compound 0.015 µg/mL, partner 0.0156 µg/mL | 0.621
[6], first compound 0.015 µg/mL, partner 0.0312 µg/mL | 0.576
[6], first compound 0.015 µg/mL, partner 0.0625 µg/mL | 0.475
[6], first compound 0.03 µg/mL, partner 0.0156 µg/mL | 0.561
[6], first compound 0.03 µg/mL, partner 0.0312 µg/mL | 0.527
[6], first compound 0.03 µg/mL, partner 0.0625 µg/mL | 0.417
[7], first compound 0.0037 µg/mL, partner 0.01 µg/mL | 0.885
[7], first compound 0.0037 µg/mL, partner 0.02 µg/mL | 0.769
[7], first compound 0.0037 µg/mL, partner 0.04 µg/mL | 0.191
[7], first compound 0.005 µg/mL, partner 0.01 µg/mL | 0.991
[7], first compound 0.005 µg/mL, partner 0.02 µg/mL | 1
[7], first compound 0.0075 µg/mL, partner 0.01 µg/mL | 0.9
[7], first compound 0.0075 µg/mL, partner 0.02 µg/mL | 0.784
[7], first compound 0.0075 µg/mL, partner 0.04 µg/mL | 0.198
[7], first compound 0.01 µg/mL, partner 0.01 µg/mL | 0.993
[7], first compound 0.01 µg/mL, partner 0.02 µg/mL | 0.983
[7], first compound 0.015 µg/mL, partner 0.01 µg/mL | 0.84
[7], first compound 0.015 µg/mL, partner 0.02 µg/mL | 0.814
[7], first compound 0.015 µg/mL, partner 0.04 µg/mL | 0.276
[7], first compound 0.02 µg/mL, partner 0.01 µg/mL | 0.993
[7], first compound 0.02 µg/mL, partner 0.02 µg/mL | 0.978
[8], first compound 0.0312 µg/mL, partner 0.0078 µg/mL | 0.064
[8], first compound 0.0312 µg/mL, partner 0.0155 µg/mL | 0.0573
[8], first compound 0.0312 µg/mL, partner 0.031 µg/mL | 0.0475
[8], first compound 0.0625 µg/mL, partner 0.0078 µg/mL | 0.0466
[8], first compound 0.0625 µg/mL, partner 0.0155 µg/mL | 0.037
[8], first compound 0.0625 µg/mL, partner 0.031 µg/mL | 0.0491
[8], first compound 0.125 µg/mL, partner 0.0078 µg/mL | 0.0548
[8], first compound 0.125 µg/mL, partner 0.0155 µg/mL | 0.0482
[8], first compound 0.125 µg/mL, partner 0.031 µg/mL | 0.0479
[8], first compound 2 µg/mL, partner 0.002 µg/mL | 0.0356
[8], first compound 2 µg/mL, partner 0.004 µg/mL | 0.0464
[8], first compound 2 µg/mL, partner 0.008 µg/mL | 0.0465
[8], first compound 4 µg/mL, partner 0.002 µg/mL | 0.0347
[8], first compound 4 µg/mL, partner 0.004 µg/mL | 0.0433
[8], first compound 4 µg/mL, partner 0.008 µg/mL | 0.0406
[8], first compound 8 µg/mL, partner 0.002 µg/mL | 0.0147
[8], first compound 8 µg/mL, partner 0.004 µg/mL | 0.021
[8], first compound 8 µg/mL, partner 0.008 µg/mL | 0.0219

fitness, one replicate
Details | partner 0.0156 µg/mL | partner 0.0312 µg/mL | partner 0.0625 µg/mL | partner 0.075 µg/mL | partner 0.15 µg/mL | partner 0.3 µg/mL
[6], first compound 0.06 µg/mL | 0.628 | 0.559 | 0.524 | – | – | –
[6], first compound 0.12 µg/mL | 0.441 | 0.379 | 0.37 | – | – | –
[8], first compound 0.0312 µg/mL | – | – | – | 0.0346 | 0.0314 | 0.0247
[8], first compound 0.0625 µg/mL | – | – | – | 0.0324 | 0.0252 | 0.0441
[8], first compound 0.125 µg/mL | – | – | – | 0.0269 | 0.0127 | 0.018

O=C(O[C@@H]1Cc2c(O)cc(O)cc2O[C@@H]1c1cc(O)c(O)c(O)c1)c1cc(O)c(O)c(O)c1 [EGCG] + CN1C2=CC=CC=C2N=C3C1=CC=CC3=O [Pyocyanin]
Details | Bliss interaction score
[1] | -0.0806
[2] | -0.114
[3] | -0.0423
[4] | 0.187

fitness
Details | first compound 6.25 µg/mL | first compound 12.5 µg/mL | first compound 25 µg/mL | first compound 50 µg/mL
[5], partner 1.25 µg/mL | – | 0.679 | 0.616 | –
[5], partner 2.5 µg/mL | – | 0.647 | 0.548 | –
[5], partner 5 µg/mL | – | 0.403 | 0.409 | 0.315
[6], partner 1.25 µg/mL | – | 0.677 | 0.689 | –
[6], partner 2.5 µg/mL | – | 0.693 | 0.682 | 0.624
[6], partner 5 µg/mL | – | 0.555 | 0.56 | 0.492
[7], partner 0.325 µg/mL | – | 0.986 | ≥ 1 | ≥ 1
[7], partner 0.65 µg/mL | – | 0.976 | 0.98 | 0.925
[7], partner 1.3 µg/mL | – | 0.638 | 0.628 | 0.75
[8], partner 1.25 µg/mL | 0.81 | 0.898 | – | –
[8], partner 2.5 µg/mL | 0.831 | 0.805 | 0.638 | –
[8], partner 5 µg/mL | 0.662 | 0.645 | 0.485 | –

COc1c(N2C[C@@H]3CCCN[C@@H]3C2)c(F)cc2c(=O)c(C(=O)O)cn(C3CC3)c12 [Moxifloxacin] + CN(N=O)C(=O)N[C@@H](C=O)[C@@H](O)[C@H](O)[C@H](O)CO [Streptozotocin]
Details | Bliss interaction score
[1] | -0.14
[2] | 0.0189
[3] | 0.0634
[4] | -0.0331

fitness
Details | partner 0.15 µg/mL | partner 0.3 µg/mL | partner 0.6 µg/mL | partner 1.2 µg/mL | partner 2.4 µg/mL | partner 4.8 µg/mL
[5], first compound 0.0075 µg/mL | 0.69 | 0.635 | 0.392 | – | – | –
[5], first compound 0.015 µg/mL | 0.453 | 0.378 | 0.106 | – | – | –
[5], first compound 0.03 µg/mL | 0.0433 | 0.0331 | 0.0187 | – | – | –
[6], first compound 0.0075 µg/mL | 0.75 | 0.715 | 0.614 | – | – | –
[6], first compound 0.015 µg/mL | 0.691 | 0.681 | 0.59 | – | – | –
[6], first compound 0.03 µg/mL | 0.611 | 0.632 | 0.533 | – | – | –
[7], first compound 0.005 µg/mL | – | – | – | 0.94 | 0.951 | 0.943
[7], first compound 0.01 µg/mL | – | – | – | 0.951 | 0.95 | 0.928
[7], first compound 0.02 µg/mL | – | – | – | 0.919 | 0.875 | 0.895
[8], first compound 0.0312 µg/mL | 0.0402 | 0.04 | 0.0108 | – | – | –
[8], first compound 0.0625 µg/mL | 0.0394 | 0.0297 | 0.0273 | – | – | –
[8], first compound 0.125 µg/mL | 0.0412 | 0.0464 | 0.0221 | – | – | –

fitness, one replicate
Details | partner 0.15 µg/mL | partner 0.3 µg/mL | partner 0.6 µg/mL | partner 1.2 µg/mL | partner 2.4 µg/mL | partner 4.8 µg/mL
[6], first compound 0.06 µg/mL | 0.653 | 0.639 | 0.605 | – | – | –
[6], first compound 0.12 µg/mL | 0.453 | 0.448 | 0.391 | – | – | –
[7], first compound 0.0037 µg/mL | – | – | – | 0.978 | 0.879 | 0.844
[7], first compound 0.0075 µg/mL | – | – | – | 0.92 | 0.922 | 0.811
[7], first compound 0.015 µg/mL | – | – | – | 0.878 | 0.872 | 0.811
[8], first compound 2 µg/mL | 0.0199 | 0.0131 | 0 | – | – | –
[8], first compound 4 µg/mL | 0.0208 | 0.0015 | 0.0018 | – | – | –
[8], first compound 8 µg/mL | 0.0288 | 0.0107 | 0.0248 | – | – | –
